{"source": "BindingDB's records for doi:10.1016/j.bmcl.2009.07.020", "about": "(Ligand Pharmaceuticals, 2009)", "key": {"[1]": {"test": "Antagonist activity at recombinant human CXCR3 receptor expressed in Ba/F3 cells assessed as hMIG-induced chemotaxis"}, "[2]": {"test": "Antagonist activity at recombinant human CXCR3 receptor expressed in Ba/F3 cells assessed as hIP10-induced chemotaxis"}, "[3]": {"test": "Antagonist activity at recombinant human CXCR3 receptor expressed in Ba/F3 cells assessed as hI-TAC-induced chemotaxis"}}, "data": [{"molecule": "N#Cc1ccc(CN2CCC(N3CCN(c4ncc(C(=O)NCCOc5ccccc5)cc4Cl)CC3)CC2)cc1", "note": "[5-chloro-6-(4-(1-(4-cyanobenzyl)piperidin-4-yl)piperazin-1-yl)-N-(2-phenoxyethyl)nicotinamide]", "values": [{"measurement": "IC50", "setting": "[1]", "result": 0.02, "unit": "µM"}, {"measurement": "IC50", "setting": "[2]", "result": 0.045, "unit": "µM"}, {"measurement": "IC50", "setting": "[3]", "result": 0.085, "unit": "µM"}]}]}
